Patent US20250171468A1, “PHENOXIDO COPPER COMPLEXES AND METHODS FOR USING THEM IN THE TREATMENT OF CANCER” (UNIVERSITY OF LOUISIANA LAFAYETTE, priority 2023, published 2025)

Tests used:
[1] = test system: all tested cancer cell lines; conditions: cited from earlier work
A2780 cells [2] = assay: Mitochondrial membrane potential analysis; format: cell-based, human; conditions: A2780, 24 h incubation, IC50 concentrations
Method: In order to get more insight about the mechanisms involved in the induction of cell death in the A2780 cells treated with the complexes 4, 6, and 7, the detection of mitochondrial membrane potential in the cells was performed by means of flow cytometric analysis using a specific kit. […] Both these agents induced the apoptosis via the intrinsic route of apoptosis activation, characterized by the efflux of cytochrome c from the damaged mitochondria to the cytoplasm of the cells, followed by the formation of […] and activation of effector caspases 3/7 leading to the destruction of cell cytoskeleton and fragmentation of DNA. […] The major suspect in this case is the induction of cuproptosis, a relatively newly discovered mechanism of cell death caused by copper, which is characterized by the high intracellular levels of copper, low levels of apoptosis, yet substantial antiproliferative effects on the target cells. […]
The cells were washed with PBS, detached by trypsin treatment, isolated by centrifugation, and resuspended in 500 iL of culture medium. […] The samples were measured in triplicates, while at least 10^4 events were recorded using BD FACSVerse flow cytometer (Becton Dickinson, USA). […]

A2780 cells [3] = assay: Intracellular ROS/superoxide production; format: cell-based, human; conditions: A2780, 24 h
Method: The effects of the tested compounds on the ROS production in A2780 cells and on the progression of the oxidative stress caused by the known pro-oxidant agent (pyocyanin) were observed by means of flow cytometry using a specific kit of intracellular ROS, and superoxide detection, respectively. […] Approximately the same pattern was identified also in case of superoxide production (FIG. 16).
The oxidative stress analysis was performed using ROS-ID® Total ROS/Superoxide detection kit (Enzo Life Sciences, US) according to the manufacturer protocol. The samples were analyzed in triplicates on multimode microplate reader Infinite PRO M200 (Tecan, Switzerland). The control samples contained 500 iM pyocyanin.

A2780 cells [4] = assay: Autophagy induction, CYTO-ID kit flow cytometry; format: cell-based, human; conditions: A2780, 24 h; 4 and 6 at 3 μM, 7 at 15 μM, cisplatin at 19 μM
Method: To further explore the mechanisms involved in the cellular death of A2780 cells induced by the complexes, the autophagy progression was monitored in the cells using a specific flow cytometry-based kit. The autophagy signaling caused by the incubation with the tested compounds was compared to the untreated control group of cells and positive control group, which included cells treated with the chloroquine/rapamycin (CQ/Rapamycin) mixture inducing strong autophagic response in cells. […] In fact, autophagy might have a dual role in cancer as it can help the cancer cells to overcome metabolic stress (hypoxia, lack of nutrients) and suppress tumor progression through degradation of oncogenic proteins. Many anticancer agents, including the copper(II) complexes, which mechanism of action includes different cellular processes, such as inhibition of mTORC1, proteasome inhibition, inhibition of histone deacetylases or topoisomerases, induce autophagy. On the other hand, the apoptosis is evidently a main route of cell death in the A2780 cells caused by complex 7.
The analyses were performed according to the manufacturer's protocol on A2780 cells pretreated for 24 h by the tested compounds. […] The samples were analyzed using the BD FACSVerse flow cytometer (Becton Dickinson, USA) in three separate experiments, while at least 10^4 events were recorded for each sample prepared in duplicates. […]

A2780 cells [5] = assay: Cell death induction, Annexin V / propidium iodide flow cytometry; format: cell-based, human; conditions: A2780, 24 h; applied at concentration causing 50% decrease in proliferation
Method: The induction of cell death in A2780 cancer cells was monitored by flow cytometry. Three types of cells were identified by incubation with Annexin V antibody and propidium iodide (PI). The normal cells were Annexin V and PI negative.
(§1) Both assays were performed according to the manufacturers' protocols with one modification in caspase induction assay, which was the use of CellEvent™ Caspase-3/7 Green Detection Reagent only for detection of Caspase-3/7 activation. […] After the 24 h incubation period, cells were washed once with PBS (0.1 M, pH 7.4), detached by trypsinization (0.25% trypsin-EDTA (Gibco™), resuspended in 500 L of culture medium and divided into two separate samples. The first sample was used in the apoptosis assay and the second one was used to detect the activation of caspases 3/7 in A2780 cells. The samples were analyzed using the BD FACSVerse flow cytometer (Becton Dickinson, USA) in three separate experiments, while at least 10^4 events were recorded for each sample prepared in duplicates.

A2780 cells [6] = assay: Cell cycle analysis by flow cytometry; format: cell-based, human; conditions: A2780, 24 h; 4 and 6 at 3 μM, 7 at 15 μM, cisplatin at 19 μM
Method: Similar cellular effects were described for a number of copper(II) complexes previously for a number of copper(II) complexes involving various ligands [40-43.]
The A2780 cells (Sigma, 93112519-1VL) were cultivated according to the producer's instructions and seeded at the concentration of 10^4 cells/well in 96-wells. […] After 24 h, the cells were washed once with PBS (0.1 M, pH 7.4) and cell cycle analysis was performed according to the protocol based on BD Cycletest™ Plus DNA kit (Becton Dickinson, USA). Measurements were performed using BD FACSVerse flow cytometer (Becton Dickinson, USA) in three independent experiments, each done in duplicate, while at least 5×10^3 events were recorded for each sample.

[7] = test system: caspases 3/7 in A2780 cells; assay: Activation of effector caspases 3/7, flow cytometry; format: cell-based, human; conditions: A2780, 24 h incubation, IC50 concentrations
Method: To assess the participation of apoptosis on the cell death induced by the studied complexes, the activity of effector caspases 3/7 in A2780 cells incubated with the tested compounds was determined by flow cytometry. […] This unequivocally means that the cell death they induce proceeds via a mechanism independent from caspases.
as §1

CCN(CC)C(=S)[S-].CCN(CC)C(=S)[S-].[Cu+2] [[Cu(DDC)2]]
IC50 compared with cisplatin [1]: less than that of cisplatin

N.N.[Cl][Pt][Cl] [Cisplatin, cisplatin, reference compound]
mitochondrial membrane damage (A2780 cells [2]): impairment of the mitochondrial membrane function/permeability
promotion of oxidative stress (ROS production) by the compound itself (A2780 cells [3]; no pyocyanin pretreatment): none of the tested complexes 4, 6, and 7 nor cisplatin showed any significant abilities to promote the oxidative stress by themselves
effect on oxidative stress caused by pyocyanin pretreatment (A2780 cells [3]; pretreated with pyocyanin): only slight antioxidative effects
activation of autophagy (A2780 cells [4]): significant activation of autophagy
induction of cell death (apoptosis and necrosis) (A2780 cells [5]): most intensive induction of cell death processes
cell-cycle modification (A2780 cells [6]): significant arrest of cells in S phase
activation of effector caspases 3/7 [7]: significant activation

On1ccccc1=S.On1ccccc1=S.[Cu] [[Cu(Pyr)2]]
IC50 compared with cisplatin [1]: less than that of cisplatin

[Cu+2].[O-]c1c(I)cc(Cl)c2cccnc12.[O-]c1c(I)cc(Cl)c2cccnc12 [[Cu(CQ)2]]
IC50 compared with cisplatin [1]: less than that of cisplatin

[Cu+2].[O-]c1cccc2cccnc12.[O-]c1cccc2cccnc12 [[Cu(8-HQ)2]]
IC50 compared with cisplatin [1]: less than that of cisplatin
